Data taken from patent US11731977B2, “SGC stimulators” (Cyclerion Therapeutics, Inc., priority 2016, dated 2023).

Legend:
[1] = tested on: brain activity in awake rats; experiment: Brain activation in rats measured by fMRI-BOLD (Example 11); type: in vivo, rat; settings: single IV administration, vs peripherally restricted sGC stimulator
Source text: Objective. Functional magnetic resonance imaging or functional MRI (fMRI) is a functional neuroimaging procedure using MRI technology that measures brain activity by detecting changes associated with blood flow. This technique relies on the fact that cerebral blood flow and neuronal activation are coupled. When an area of the brain is in use, blood flow to that region also increases. Awake rats were studied by fMRI to assess changes (“fingerprint”) in brain activity following a single intravenous administration of a compound of the invention
Experimental Design. 24 male Sprague-Dawley rats weighing from 275-350 g were used. Following acclimation, the animals were placed in the restrainer and positioned in the magnet. Catheters were placed in each animal to allow for remote dosing when the animals were in the magnet. Scans were acquired continuously for 5 minutes prior to administration of either a vehicle or a compound of the invention to establish a baseline for the brain activity. Following the 5-minute baseline period, either the vehicle or the compound of the invention was administered to the rat and scans were acquired continuously for 30-45 minutes.

[2] = tested on: rats; experiment: Acute and tonic pain: formalin test, score (Example 13); type: in vivo, rat; settings: Compound I-1 p.o. 10 mg/kg, 120 minutes after treatment
Experimental: Formalin Test. 2.5% formalin solution was injected by subplantar route into the right hind paw. Scoring of pain behavior was performed in rats for 36 minutes every 3 minutes according to the following scores:
0=normal behavior of the injected hind limb to support the body
1=slight touching of the injected paw on the floor to lightly support or not support the body
2=total withdrawal of the injected paw
3=licking, biting or shaking of the injected paw

Fc1ccccc1Cc1nc(-c2nc(C(F)(F)F)n[nH]2)cn2ccnc12 [Compound I-1, 8-(2-fluorobenzyl)-6-(3-(trifluoromethyl)-1H-1,2,4-triazol-5-yl)imidazo[1,2-a]pyrazine]
brain activation (fMRI-BOLD) [1]: a greater region of the brain is activated
% of activity vs. vehicle ([2]; Formalin test - score (early phase)): 57%
% of activity vs. vehicle ([2]; Formalin test - score (late phase)): 32%
